Assays:
rats = assay: Elevated plus-maze (anxiolytic effect); assay type: in vivo, rat; conditions: male Sprague-Dawley rats, po, tested 60 min after treatment, 5 min test time
Description: Tests have been performed as described by Pellow and co-workers [J. Neurosci. Methods, 14, 149 (1985)]. A wooden cross, 15 cm wide with 100 cm long arms was used for the experiments. The sides and ends of two opposite arms of the cross were equipped with 40 cm high walls, however, the arms were open to the 15×15 cm central area (closed arms). The two other opposite arms were not encircled by walls (open arms).
Male Sprague-Dawley rats weighing 200–220 g were used for the experiments. The animals were placed in the central area of the equipment 60 min after treatment and the following four parameters have been observed for the 5 min test time: • time spent in the open arms, • time spent in the closed arms, • number of entries into the open arms, • number of entries into the closed arms.
The effect was expressed as percent increase in either the time (measured in sec) spent in the open arms or number of entries into the open arms. MEDs (minimal effective dose) were determined for each compound regarding the time spent in the open arms. Results are summarized in Table I. Buspiron [8-[4-[4-(2-pyrimidinyl)-1-piperazinyl]-butyl]-8-azaspiro[4,5]decan-7,9-dion] was used as reference compound.

mice = assay: Inhibition of spontaneous motor activity (sedative effect); assay type: in vivo
Description: The effect on spontaneous motor activity was investigated according to Borsy and co-workers [Borsy, J. et al, Arch. Int. Pharmacodyn., 124, 180–190 (1960)] in a ten channel Dews instrument, with 1—1 animal in each channel. Animals were placed into the instrument 60 min after per os treatment with either vehicle or test compound, and interruptions of infrared beams were recorded for 30 min. […] Diazepam [7-chloro-1,3-dihydro-1-methyl-5-phenyl-2H-1,4-benzodiazepine-2-one] was used as reference compound.

[1] = mice, per os, placed in Dews instrument 60 min after treatment, recorded for 30 min

| SMILES | MED (minimal effective dose) regarding the time spent in the open arms (rats) | ID50 (50 percent inhibitory dose), spontaneous motor activity (mice; [1]) [mg/kg po] | melting point [°C] | ID50 (50 percent inhibitory dose), spontaneous motor activity (mice; mouse, in vivo, 60 min) [mg/kg po] |
| --- | --- | --- | --- | --- |
| Cl.Cl.O=C(c1ccc(F)cc1O)C1CCN(CCNc2cn[nH]c(=O)c2)CC1 [Example 2, 5-{2-[4-[1-(4-fluoro-2-hydroxy-phenyl)-methanoyl]-piperidine-1-yl]-ethylamino}-2H-piridazine-3-one-dihydrochloride] | ≦0.3 mg/kg po | >100 | – | – |
| CN1C(=O)CN=C(c2ccccc2)c2cc(Cl)ccc21 [Diazepam, 7-chloro-1,3-dihydro-1-methyl-5-phenyl-2H-1,4-benzodiazepine-2-one, reference compound] | – | 7.0 | – | – |
| Cn1ncc(NCCN2CCC(C(=O)c3ccc(F)cc3O)CC2)cc1=O [Example 1, 5-{2-[4-[1-(4-fluoro-2-hydroxy-phenyl)-methanoyl]-piperidine-1-yl]-ethylamino}-2-methyl-2H-pyridazine-3-one] | ≦0.03 mg/kg po | – | 200 to 202 | >100 |
| O=C1CC2(CCCC2)CC(=O)N1CCCCN1CCN(c2ncccn2)CC1 [Buspiron, 8-[4-[4-(2-pyrimidinyl)-1-piperazinyl]-butyl]-8-azaspiro[4,5]decan-7,9-dion, reference compound] | 3.0 mg/kg po | – | – | – |
| CC(CNc1cnn(C)c(=O)c1)N1CCC(C(=O)c2ccc(F)cc2O)CC1 (stereo not shown) [Example 3, 5-{2-[4-[1-(4-fluoro-2-hydroxy-phenyl)-methanoyl]-piperidine-1-yl]-propylamino}-2-methyl-2H-pyridazine-3-one] | ≦0.3 mg/kg po | – | 199 to 201 | >100 |

Reference: patent US7183283B2, “Piperidinyl-alkylamino-pyridazinone derivatives, a process for the preparation thereof and pharmaceutical compositions containing said compounds” (Egis Gyogyszergyar RT., priority 2002, dated 2007)
